Where a name gives a salt, the structure may show the parent alone. Read-outs that look alike come from different tables or passages of the source.
Legend:
human citrate plasma [1] = assay: Inhibition of the coagulation of human plasma: activated partial thromboplastin time (aPTT); type: biochemical
Description: (§1) Determination of the Inhibition of Coagulation
(§2) For the determination of the prothrombin time (PT), 100 μl of thromboplastin (Dade, Unterschleiβheim) and 100 μl of inhibitor, dissolved in CaCl2 (0.05 M, 5% ethanol) were incubated at 37° C. for 2 min and the coagulation was started by addition of 100 μl of human citrate plasma. For the determination of the activated partial thromboplastin time (aPTT), 100 μl of human citrate plasma were incubated with 100 μl of aPTT reagent (Roche Diagnostics, Mannheim) at 37° C. for 3 min and the coagulation was started by addition of 100 μl of inhibitor, dissolved in CaCl2 (0.05 M, 5% ethanol). The coagulation times were determined using the Thrombotrack coagulometer (Immuno, Heidelberg).

human citrate plasma [2] = assay: Inhibition of the coagulation of human plasma: prothrombin time (PT); type: biochemical
Description: as §1, §2

F Xa = F Xa (Homo sapiens, UniProt P00742); details: cited from earlier work
Sequence of F Xa (P00742 235-488 limits assumed): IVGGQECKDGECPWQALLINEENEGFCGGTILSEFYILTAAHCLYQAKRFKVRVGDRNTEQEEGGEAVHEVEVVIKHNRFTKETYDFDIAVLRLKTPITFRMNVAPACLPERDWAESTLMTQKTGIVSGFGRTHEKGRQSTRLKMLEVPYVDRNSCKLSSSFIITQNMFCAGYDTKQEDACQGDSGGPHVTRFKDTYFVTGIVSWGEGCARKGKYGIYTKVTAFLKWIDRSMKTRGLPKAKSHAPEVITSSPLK
Sequence of F Xa (P00742 41-179 partner limits assumed): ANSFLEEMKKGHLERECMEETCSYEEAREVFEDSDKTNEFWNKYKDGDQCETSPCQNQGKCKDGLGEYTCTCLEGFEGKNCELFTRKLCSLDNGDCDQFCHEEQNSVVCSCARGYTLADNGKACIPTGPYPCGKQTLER

With `N=C(N)c1ccc(CNC(=O)CNC(=O)[C@@H](COCc2ccccc2)NS(=O)(=O)Cc2ccccc2)cc1` [Benzylsulfonyl-D-Ser(Bz)-Gly-4-amidinobenzylamide×TFA] the “Prolongation of the coagulation time (%) aPTT” value (from here on “Prolongation … (%) aPTT”) (human citrate plasma [1]; Concentration 0.1 μM) was 111%, the “Prolongation … (%) aPTT” value (human citrate plasma [1]; Concentration 0.21 μM) was 122% and the “Prolongation … (%) aPTT” value (human citrate plasma [1]; Concentration 0.42 μM) was 146%. The “Prolongation … (%) aPTT” value (human citrate plasma [1]; Concentration 0.83 μM) was 185%, the “Prolongation … (%) aPTT” value (human citrate plasma [1]; Concentration 1.7 μM) was 260% and the “Prolongation … (%) aPTT” value (human citrate plasma [1]; Concentration 3.3 μM) was 385%. For the same molecule, the “Prolongation of the coagulation time (%) PT” value (shortened to “Prolongation … (%) PT”) (human citrate plasma [2]; Concentration 0.1 μM) was 119%, the “Prolongation … (%) PT” value (human citrate plasma [2]; Concentration 0.21 μM) was 127% and the “Prolongation … (%) PT” value (human citrate plasma [2]; Concentration 0.42 μM) was 153%. The “Prolongation … (%) PT” value (human citrate plasma [2]; Concentration 0.83 μM) was 198%, the “Prolongation … (%) PT” value (human citrate plasma [2]; Concentration 1.7 μM) was 266% and the “Prolongation … (%) PT” value (human citrate plasma [2]; Concentration 3.3 μM) was 386%.
For `N=C(N)c1ccc(C=C2CCCCC(=Cc3ccc(C(=N)N)cc3)C2=O)cc1` [BABCH], the Ki (F Xa; literature) is given as 13 nM.
For `N=C(N)c1ccc(CNC(=O)[C@@H]2CCN2C(=O)[C@H](NCC(=O)O)C2CCCCC2)cc1` [melagatran], the Ki (F Xa; literature (Gustafsson et al. 1996)) is listed as 2800 nM.
